Here are results for 2 molecules from US9856507B2, “Method for screening food ingredients and food compositions” (JAPANESE FOUNDATION FOR CANCER RESEARCH, priority 2013, dated 2018).

Bounds are passed on as bounds.

In one data set the test system is gut microbiota. In words: Gut microbiota analysis by PCR of 16S rRNA gene from feces. It counts as in vivo, mice. The protocol:
Next, alteration in gut microbiota caused by antibiotic administration conducted in Example 3 will be shown. In the experimental schedule shown in FIG. 4A, 3 groups were used: a group fed normal diets, a group fed high-fat diets, and a group fed high-fat diets and also given vancomycin. The gut microbiota was analyzed.
The gut microbiota was identified by PCR analysis (Non Patent Literatures 11 and 12). Specifically, DNA was extracted from the feces and purified. The gene encoding 16S rRNA in many types of bacteria was amplified by PCR using universal primers. The V1-V4 hypervariable regions were further amplified, followed by identification.

The test system of another data set is intestinal bacteria. In words: Level of gene encoding intestinal bacterial 16S rRNA after antibiotic administration. It counts as in vivo, mice. The note with it: 17 weeks after antibiotic administration, 30 weeks after birth; high-fat diet, drinking water. How it is done: DMBA was applied to wild-type neonatal mice, followed by high-fat diet feeding. From 13 weeks old, an antibiotic cocktail (4Abx, antibiotic cocktail administration group) or vancomycin (VCM, vancomycin administration group) mixed with drinking water was administered to the mice. At the 30th week after the start of the raising, their livers were excised, and liver cancer development was analyzed. On the other hand, the raising of a control group was continued in the same way as the aforementioned raising up to the 13th week. The antibiotic cocktail contained ampicillin (1 g/l), neomycin (1 g/l), metronidazole (1 g/l), and vancomycin (500 mg/l). Also, in the case of administering vancomycin alone, 500 mg/l was administered.

Data set [1] relates to liver cancer. Description: Liver cancer development in DMBA-treated mice fed high-fat diets, antibiotic in drinking water. It counts as in vivo. The note with it: dissected at 30th week; antibiotic from 13 weeks old; compared with control. An excerpt: An acetone solution containing 0.5% of the carcinogenic substance DMBA (7,12-dimethylbenz[a]anthracene) was applied once to the backs of wild-type (C57BL/6) neonatal mice. The neonatal mice were raised together with their mother mouse by feeding with normal diets (ND) or high-fat diet (HFD) until 4 weeks old. The high-fat diets used were D12492 (Rodent Diet with 60% kcal % Fat; Research Diets, Inc., USA). The neonatal mice were weaned at 4 weeks old and subsequently raised with normal diets or high-fat diet. At 30 weeks old, their livers and lungs were excised, and the presence or absence of cancer development was analyzed. The average body weight of the mice at the time of dissection was 33 g for the mice fed normal diets and 51 g for the mice fed high-fat diets. The mice fed high-fat diets had approximately 1.5 times the body weights of the mice fed normal diets.
DMBA was applied to wild-type neonatal mice, followed by high-fat diet feeding. From 13 weeks old, an antibiotic cocktail (4Abx, antibiotic cocktail administration group) or vancomycin (VCM, vancomycin administration group) mixed with drinking water was administered to the mice. At the 30th week after the start of the raising, their livers were excised, and liver cancer development was analyzed. […]
The mice of each group were dissected at the 30th week, and liver cancer development was analyzed (FIGS. 4C and 4D).

For data set [2], the system named is liver cancer. Description: Liver cancer induction by oral deoxycholic acid in mice fed high-fat diets and given antibiotic cocktail. As to conditions: 40 μg/g body weight orally three times a week; HFD + antibiotic cocktail; n=3. The data set is classed as in vivo. How it is done: From the 13th week after the start of the raising, the antibiotic cocktail was administered to mice fed high-fat diets, which were then further raised. To these mice, 40 μg/g body weight of deoxycholic acid (DCA) or only a vehicle as a control was orally administered three times a week (FIG. 6A). […] The mice given deoxycholic acid developed a large number of liver tumors (indicated by Δ in the diagram), whereas cancer development was rarely seen in the control mouse group given only the vehicle. […] The cancer was rarely developed in the control mouse group given only the vehicle, and even if the cancer was developed, its tumor size was small. On the other hand, the deoxycholic acid administration group had multiple cancer (25 or more tumors per individual), and also, its size was large.

`CN[C@H](CC(C)C)C(=O)N[C@H]1C(=O)N[C@@H](CC(N)=O)C(=O)N[C@H]2C(=O)N[C@H]3C(=O)N[C@H](C(=O)N[C@H](C(=O)O)c4cc(O)cc(O)c4-c4cc3ccc4O)[C@H](O)c3ccc(c(Cl)c3)Oc3cc2cc(c3O[C@@H]2O[C@H](CO)[C@@H](O)[C@H](O)[C@H]2O[C@H]2C[C@](C)(N)[C@H](O)[C@H](C)O2)Oc2ccc(cc2Cl)[C@H]1O` [vancomycin]: the “Gram-negative microbiota, average” value with gut microbiota (HFD+VCM group, on average (FIG. 5)) is given as 99%. For the same molecule, the “cluster XI of the genus Clostridium” value with gut microbiota (high-fat diet plus vancomycin group, n=2) came out at 0%. Moreover, the “amount of intestinal bacteria (level of gene encoding 16S rRNA)” value with intestinal bacteria is given as “decreased into a very small level”. Besides, the “liver cancer development (tumor number and size)” value in the data set with liver cancer [1] is “developed no liver cancer or developed liver cancer with a smaller tumor number and a smaller size as compared with the control”.
On to `C[C@H](CCC(=O)O)[C@H]1CC[C@H]2[C@@H]3CC[C@@H]4C[C@H](O)CC[C@]4(C)[C@H]3C[C@H](O)[C@]12C` [deoxycholic acid], for which, in the data set on liver cancer [2], the “tumor size (liver)” value is “large” and the “tumors per individual (liver)” value is recorded as ≥ 25.
